Measured values published in ChEMBL document CHEMBL5500382, “Discovery of potent small molecule ubiquitin-specific protease 10 inhibitors with anti-hepatocellular carcinoma activity through regulating YAP expression” (Eur J Med Chem, 2024).

Assays:
[1] = molecular target: T1, Ubiquitin carboxyl-terminal hydrolase 10 (Homo sapiens, UniProt Q14694); experiment: Inhibition of human USP10 deubiquitinase activity using Ubiquitin 7-amino-4-carbamoylmethylcoumarin as substrate preincubated for 30 mins followed by substrate addition and measured after 30 mins by fluorometric assay
T1 sequence (Q14694 whole entry): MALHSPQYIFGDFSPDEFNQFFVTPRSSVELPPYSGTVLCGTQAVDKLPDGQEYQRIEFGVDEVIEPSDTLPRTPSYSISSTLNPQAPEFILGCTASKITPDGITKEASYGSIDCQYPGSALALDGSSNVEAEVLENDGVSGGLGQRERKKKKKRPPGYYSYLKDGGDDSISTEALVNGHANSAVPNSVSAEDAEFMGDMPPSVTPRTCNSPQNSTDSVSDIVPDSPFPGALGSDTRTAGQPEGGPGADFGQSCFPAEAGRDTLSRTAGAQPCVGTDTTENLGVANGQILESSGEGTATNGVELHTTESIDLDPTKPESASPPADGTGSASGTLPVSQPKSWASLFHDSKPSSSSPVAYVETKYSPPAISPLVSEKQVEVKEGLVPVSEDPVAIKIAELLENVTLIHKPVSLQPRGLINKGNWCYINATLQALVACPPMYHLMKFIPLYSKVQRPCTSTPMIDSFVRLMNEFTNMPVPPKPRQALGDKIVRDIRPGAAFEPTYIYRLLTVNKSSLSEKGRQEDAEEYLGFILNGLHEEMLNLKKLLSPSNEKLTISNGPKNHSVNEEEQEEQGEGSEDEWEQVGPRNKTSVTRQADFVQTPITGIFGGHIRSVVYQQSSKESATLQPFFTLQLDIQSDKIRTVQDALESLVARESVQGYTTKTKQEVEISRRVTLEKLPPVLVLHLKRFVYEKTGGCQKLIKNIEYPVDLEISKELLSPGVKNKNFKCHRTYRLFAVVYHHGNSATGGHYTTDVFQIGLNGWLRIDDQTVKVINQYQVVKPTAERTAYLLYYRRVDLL

Bel-7402 = experiment: Antiproliferative activity against human Bel-7402 cells by CCK-8 method
[2] = molecular target: T2, Ubiquitin carboxyl-terminal hydrolase 13 (Homo sapiens, UniProt Q92995); experiment: Inhibition of USP13 (unknown origin)
T2 sequence (Q92995 whole entry): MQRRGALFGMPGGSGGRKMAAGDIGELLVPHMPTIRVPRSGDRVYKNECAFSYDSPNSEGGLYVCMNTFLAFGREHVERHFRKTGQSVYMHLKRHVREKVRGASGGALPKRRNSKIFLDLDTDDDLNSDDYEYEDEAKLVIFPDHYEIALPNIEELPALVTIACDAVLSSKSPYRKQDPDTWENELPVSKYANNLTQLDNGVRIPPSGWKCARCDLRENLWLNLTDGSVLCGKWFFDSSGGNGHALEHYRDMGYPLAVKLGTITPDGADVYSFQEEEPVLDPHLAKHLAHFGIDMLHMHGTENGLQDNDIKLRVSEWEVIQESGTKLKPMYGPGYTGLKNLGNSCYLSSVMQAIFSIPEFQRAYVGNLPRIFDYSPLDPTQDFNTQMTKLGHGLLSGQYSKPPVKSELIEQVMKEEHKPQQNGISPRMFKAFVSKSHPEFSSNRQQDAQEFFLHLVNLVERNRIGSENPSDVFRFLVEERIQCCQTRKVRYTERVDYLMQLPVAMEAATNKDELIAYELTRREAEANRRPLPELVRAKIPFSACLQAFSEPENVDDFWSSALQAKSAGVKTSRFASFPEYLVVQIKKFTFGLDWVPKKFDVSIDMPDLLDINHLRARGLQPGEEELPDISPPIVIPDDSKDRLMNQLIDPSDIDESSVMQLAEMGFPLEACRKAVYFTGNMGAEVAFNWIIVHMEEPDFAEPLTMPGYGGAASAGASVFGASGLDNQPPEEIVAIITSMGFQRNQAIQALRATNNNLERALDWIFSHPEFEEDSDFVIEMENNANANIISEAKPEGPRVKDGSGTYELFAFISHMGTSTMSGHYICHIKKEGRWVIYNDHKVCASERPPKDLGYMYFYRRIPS

[3] = molecular target: T1, Ubiquitin carboxyl-terminal hydrolase 10; experiment: Inhibition of human recombinant his tagged USP10 assessed as deubiquitinase activity

SMILES | IC50 [1] [µM] | also measured
Cc1ccccc1NC(=O)c1cn(CC(=O)NCCc2ccc(Cl)cc2)c2cc(N3CCCCC3)ccc2c1=O | 10.6 | 
Cc1ccc2c(=O)c(C(=O)NC3CCOCC3)cn(CC(=O)NCCc3ccc(Cl)cc3)c2n1 | > 30 | 
Cc1ccc2c(=O)c(C(=O)Nc3ccccc3C)cn(CC(=O)NCCc3ccc(Cl)cc3)c2n1 | 9.5 | 
Cc1ccc2c(=O)c(C(=O)N[C@@H](C)c3ccccc3)cn(CC(=O)N3CCN(c4ccc(Cl)cc4)CC3)c2c1 | 10.9 | 
Cc1ccc2c(=O)c(-c3nc(-c4ccccc4C)no3)cn(CC(=O)Nc3c(F)cccc3F)c2n1 | 11.1 | IC50 (Bel-7402): 22.7 µM
COc1ccc2c(=O)c(-c3nc(-c4ccccc4C)no3)cn(CC(=O)NCCc3ccc(Cl)cc3)c2c1 | 7.9 | 
Fc1ccc(CNc2ncnc3ccc(F)cc23)cc1 |  | IC50 [2]: 0.7 µM
Cc1ccccc1NC(=O)c1cn(CC(=O)NC(C)CO)c2cc(C(F)(F)F)ccc2c1=O (stereo not given) | > 30 | 
Cc1ccc2c(=O)c(C(=O)N[C@@H](C)c3ccccc3)cn(CC(=O)NCCc3ccc(Cl)cc3)c2c1 | > 30 | 
Cc1ccc2c(c1)c(=O)c(C(=O)Nc1ccccc1C)cn2CC(=O)NCCc1ccc(Cl)cc1 | > 30 | 
CCOC(=O)c1cc([N+](=O)[O-])c(Oc2ccc(C(=O)OC)cc2)s1 |  | IC50 [3]: 8.3 µM

Now from value to compound, other results behind:

IC50 [1] [µM] | SMILES | also measured
> 30 | Cc1ccccc1NC(=O)c1cn(CC(=O)N2CCC(N3CCN(C)CC3)CC2)c2cc(C(F)(F)F)ccc2c1=O | 
9 | Cc1ccc2c(=O)c(-c3nnc(Cc4ccccc4)o3)cn(CC(=O)NCCc3ccc(Cl)cc3)c2c1 | 
> 30 | Cc1ccccc1NC(=O)c1cn(CC(=O)NCCc2ccc(Cl)cc2)c2ccc(F)cc2c1=O | 
> 30 | Cc1ccccc1NC(=O)c1c[nH]c2cc(C(F)(F)F)ccc2c1=O | 
> 30 | Cc1ccccc1NC(=O)c1cn(CC(=O)N2CC3(CCN(C(=O)OC(C)(C)C)CC3)C2)c2cc(C(F)(F)F)ccc2c1=O | 
> 30 | Cc1ccc2c(=O)c(C(=O)N[C@@H](C)c3ccc(F)cc3)cn(CC(=O)NCCc3ccc(Cl)cc3)c2c1 | 
8.4 | Cc1ccccc1NC(=O)c1cn(CC(=O)NCCc2ccc(Cl)cc2)c2cc(N3CCOCC3)ccc2c1=O | 
9.2 | Cc1ccc2c(=O)c(-c3nc(-c4ccccc4C)no3)cn(CC(=O)NC3CCN(c4ccc(Cl)cc4)CC3)c2c1 | 
11.9 | C[C@H](NC(=O)c1cn(CC(=O)NCCc2ccc(Cl)cc2)c2cc(F)ccc2c1=O)c1ccccc1 | 
> 30 | Cc1ccc2c(=O)c(C(=O)N3CCOCC3)cn(CC(=O)NCCc3ccc(Cl)cc3)c2n1 | 
> 30 | C[C@H](NC(=O)c1cn(CC(=O)NCCc2ccc(Cl)cc2)c2cc(C(F)(F)F)ccc2c1=O)c1ccccc1 | 
> 30 | COCCOc1ccc(N2CCN(C(=O)Cn3cc(C(=O)Nc4ccccc4C)c(=O)c4ccc(C(F)(F)F)cc43)CC2)cc1 | 
21.2 | COc1ccc([C@H](C)NC(=O)c2cn(CC(=O)NCCc3ccc(Cl)cc3)c3cc(C)ccc3c2=O)cc1 | 
